The values below come from patent publication US20250313575A1, “MACROCYCLES AS LRRK2 INHIBITORS, PHARMACEUTICAL COMPOSITIONS, AND USES THEREOF” (Merck Sharp & Dohme LLC, priority 2022, published 2025).

The assay deals with GST-tagged truncated human mutant G2019S LRRK2 (Homo sapiens (Human), UniProt Q5S007, G2019S). Kind of assay: LRRK2 G2019S Km ATP LanthaScreen assay. The format is biochemical. The following applies: G2019S LRRK2, 134 μM ATP (Km ATP), LRRKtide substrate. In outline: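 Ten-point compound series (highest 9.99 μM in DMSO) preincubated 15 min with 1.25 nM GST-tagged truncated human LRRK2 G2019S, then 90 min reaction at ambient temperature with 134 μM ATP (Km) and fluorescein-labelled LRRKtide, pH 8.5. Phosphorylation read as 520/495 nm emission ratio via Tb-labelled antibody; IC50 from 4P logistic regression.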
Sequence of GST-tagged truncated human mutant G2019S LRRK2 (Q5S007 970-2527 G2019S): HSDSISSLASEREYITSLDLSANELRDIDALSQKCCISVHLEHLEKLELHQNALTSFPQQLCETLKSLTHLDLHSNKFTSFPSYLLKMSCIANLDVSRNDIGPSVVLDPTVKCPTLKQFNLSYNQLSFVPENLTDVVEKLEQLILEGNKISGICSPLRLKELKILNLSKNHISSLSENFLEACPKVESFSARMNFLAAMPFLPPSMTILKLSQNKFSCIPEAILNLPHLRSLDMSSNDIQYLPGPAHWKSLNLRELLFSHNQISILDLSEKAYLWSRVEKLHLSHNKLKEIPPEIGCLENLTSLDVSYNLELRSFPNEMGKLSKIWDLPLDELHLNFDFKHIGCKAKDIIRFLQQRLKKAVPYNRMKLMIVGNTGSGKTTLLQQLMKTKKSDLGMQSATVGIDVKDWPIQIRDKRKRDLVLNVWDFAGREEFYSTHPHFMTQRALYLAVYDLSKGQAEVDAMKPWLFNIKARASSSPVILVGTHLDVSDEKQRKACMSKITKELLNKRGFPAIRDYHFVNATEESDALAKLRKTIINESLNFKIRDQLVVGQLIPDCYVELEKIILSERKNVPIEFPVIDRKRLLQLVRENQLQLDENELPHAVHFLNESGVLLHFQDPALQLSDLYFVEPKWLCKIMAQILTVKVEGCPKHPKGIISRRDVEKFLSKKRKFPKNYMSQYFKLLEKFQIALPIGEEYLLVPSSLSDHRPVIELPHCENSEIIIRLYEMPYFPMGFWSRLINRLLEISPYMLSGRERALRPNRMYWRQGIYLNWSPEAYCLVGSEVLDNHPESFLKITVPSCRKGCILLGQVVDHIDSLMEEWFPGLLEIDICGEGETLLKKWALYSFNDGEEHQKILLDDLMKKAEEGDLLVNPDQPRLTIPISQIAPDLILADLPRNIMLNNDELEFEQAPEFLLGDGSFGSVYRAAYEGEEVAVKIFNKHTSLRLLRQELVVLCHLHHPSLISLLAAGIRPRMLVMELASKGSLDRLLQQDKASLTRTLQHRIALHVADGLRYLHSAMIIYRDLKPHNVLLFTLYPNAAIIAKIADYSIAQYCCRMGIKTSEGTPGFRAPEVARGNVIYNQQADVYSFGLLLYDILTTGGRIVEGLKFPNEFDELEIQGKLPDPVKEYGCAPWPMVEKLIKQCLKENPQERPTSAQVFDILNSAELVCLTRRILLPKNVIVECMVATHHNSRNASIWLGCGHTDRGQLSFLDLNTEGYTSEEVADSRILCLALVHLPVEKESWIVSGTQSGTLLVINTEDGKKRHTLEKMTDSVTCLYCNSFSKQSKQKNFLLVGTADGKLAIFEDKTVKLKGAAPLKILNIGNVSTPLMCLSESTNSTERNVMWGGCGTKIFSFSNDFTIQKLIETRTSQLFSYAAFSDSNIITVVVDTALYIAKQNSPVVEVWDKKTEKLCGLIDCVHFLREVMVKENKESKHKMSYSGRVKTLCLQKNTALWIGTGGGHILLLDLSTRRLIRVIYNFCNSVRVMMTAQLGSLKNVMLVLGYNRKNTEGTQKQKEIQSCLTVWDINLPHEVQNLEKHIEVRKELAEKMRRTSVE

Turning to `CC(C)c1nn(C(C)(C)CO)c2c1Nc1ncc(C(F)(F)F)c(n1)N[C@@H]1COC[C@H]1CO2` [Ex-7.5, 2-((10aS,13aS)-3-isopropyl-8-(trifluoromethyl)-10a,11,13a,14-tetrahydro-10H,13H-5,9-(azeno)furo[3,4-k]pyrazolo[3,4-b][1]oxa[4,6,10]triazacyclotridecin-1(4H)-yl)-2-methylpropan-1-ol], the “LRRK2 pIC50” value is recorded as over 10.09.
The value for `CC(C)(C#N)n1nc(C2CC2)c2c1OC[C@@H]1CC[C@H]1Nc1nc(ncc1C(F)(F)F)N2` [Ex-1.17, 2-((10aR,12aR)-3-cyclopropyl-8-(trifluoromethyl)-10,10a,11,12,12a,13-hexahydro-5,9-(azeno)cyclobuta[k]pyrazolo[3,4-b][1]oxa[4,6,10]triazacyclotridecin-1(4H)-yl)-2-methylpropanenitrile] was over 10.09; that for `CCOC(=O)C(C)(C)n1nc(C(C)C)c2c1OCC[C@@H](C)Nc1nc(ncc1C(F)(F)F)N2` [Ex-1.12, ethyl (R)-2-(3-isopropyl-11-methyl-8-(trifluoromethyl)-10,11,12,13-tetrahydro-5,9-(azeno)pyrazolo[3,4-b][1]oxa[4,6,10]triazacyclotridecin-1(4H)-yl)-2-methylpropanoate] was under 5.00; that for `Cc1nn(C2CC2)c2c1OC[C@@H]1COC[C@H]1Nc1nc(ncc1Cl)N2` [Ex-2.55, (10aS,13aS)-8-chloro-3-cyclopropyl-1-methyl-3,4,10a,11,13a,14-hexahydro-10H,13H-5,9-(azeno)furo[3,4-k]pyrazolo[4,3-b][1]oxa[4,6,10]triazacyclotridecine] was 8.94.
In the case of `Cc1ccc2c(n1)OC[C@@H]1COC[C@H]1Nc1nc(ncc1C(F)(F)F)N2` [Ex-15.7, (11aS,14aS)-2-methyl-9-(trifluoromethyl)-11a,12,14a,15-tetrahydro-5H,11H,14H6,10-(azeno)furo[3,4-k]pyrido[2,3-b][1]oxa[4,6,10]triazacyclotridecine] it was 10.01; in that of `CC1CCOc2c(C(C)(C)C#N)nn(C3CCC3)c2Nc2ncc(C(F)(F)F)c(n2)N1` (single isomer, unassigned) [Ex-2.29, (R)- or (S)-butyl-7-methyl-10-(trifluoromethyl)-1,5,6,7,8,14-hexahydro-9,13-(azeno)pyrazolo[4,3-b][1]oxa[4,6,10]triazacyclotridecin-3-yl)-2-methylpropanenitrile], 5.70.
In the case of `Cc1cnc2c(c1)Nc1ncc(C(F)(F)F)c(n1)N[C@@H]1COC[C@H]1CO2` [Ex-15.3, (11aS,14aS)-3-methyl-9-(trifluoromethyl)-11a,12,14a,15-tetrahydro-5H,11H,14H6,10-(azeno)furo[3,4-k]pyrido[2,3-b][1]oxa[4,6,10]triazacyclotridecine] it was 9.15.
As to `Cc1nn(C)c2c1OC[C@@H]1CCC(C1)Nc1nc(ncc1C(F)(F)F)N2` [Ex-2.87, (5^1S,5^3R)-1^1,1^3-dimethyl-3^5-(trifluoromethyl)-1^1H-7-oxa-2,4-diaza-3(2,4)-pyrimidina-1(5,4)-pyrazola-5(1,3)-cyclopentanacycloheptaphane], the “LRRK2 pIC50” value amounted to 6.84.
